Experimental data taken from patent US8293901B2, “MAPK/ERK kinase inhibitors” (Takeda Pharmaceutical Company Limited, priority 2006, dated 2012).

These molecules were tested against MEK1 (Homo sapiens, UniProt Q02750, DEL33-52/S218E/S222D) (assay: MEK1 inhibition, ERK1/FI-Erktide fluorescence polarization assay with IMAP beads).
MEK1, sequence (Q02750 with tags, fused parts or gaps DEL33-52/S218E/S222D): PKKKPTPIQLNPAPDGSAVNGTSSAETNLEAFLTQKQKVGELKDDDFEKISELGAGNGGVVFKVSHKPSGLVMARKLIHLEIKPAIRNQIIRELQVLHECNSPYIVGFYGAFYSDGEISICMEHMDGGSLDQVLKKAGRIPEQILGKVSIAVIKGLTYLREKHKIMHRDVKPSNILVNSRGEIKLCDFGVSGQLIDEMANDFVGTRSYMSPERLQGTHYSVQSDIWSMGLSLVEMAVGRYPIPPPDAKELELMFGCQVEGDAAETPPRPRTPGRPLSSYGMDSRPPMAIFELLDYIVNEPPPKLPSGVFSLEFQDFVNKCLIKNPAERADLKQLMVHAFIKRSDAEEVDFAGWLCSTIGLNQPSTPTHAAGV

`Cc1c(Nc2ccc(I)cc2F)c2c(=O)n(CCO)cnc2n(C)c1=O` [Example 14, 5-(2-Fluoro-4-iodophenylamino)-3-(2-hydroxyethyl)-6,8-dimethylpyrido[2,3-d]pyrimidine-4,7(3H,8H)-dione] and `Cn1c(=O)c(Cl)c(Nc2ccc(I)cc2F)c2c(=O)n(CCO)cnc21` [Example 30, 6-Chloro-5-(2-fluoro-4-iodophenylamino)-3-(2-hydroxyethyl)-8-methylpyrido[2,3-d]pyrimidine-4,7(3H,8H)-dione] cannot be ordered by IC50: at most 5 nM for the first, at most 5 nM for the second.

`Cc1c(Nc2ccc(I)cc2F)c2c(=O)n(C(CO)CO)cnc2n(C)c1=O` [Example 43, 3-(1,3-Dihydroxypropan-2-yl)-5-(2-fluoro-4-iodophenylamino)-6,8-dimethylpyrido[2,3-d]pyrimidine-4,7(3H,8H)-dione] and `Cn1c(=O)c(F)c(Nc2ccc(I)cc2F)c2c(=O)n(C(CO)CO)cnc21` [Example 25, 3-(1,3-Dihydroxypropan-2-yl)-6-fluoro-5-(2-fluoro-4-iodophenylamino)-8-methylpyrido[2,3-d]pyrimidine-4,7(3H,8H)-dione] cannot be ordered by IC50: 5 to 15 nM for the first, at most 5 nM for the second.

`C#Cc1ccc(Nc2c(F)c(=O)n(C)c3ncn(C[C@H](O)CO)c(=O)c23)c(F)c1` [Example 21, (S)-3-(2,3-Dihydroxypropyl)-5-(4-ethynyl-2-fluorophenylamino)-6-fluoro-8-methylpyrido[2,3-d]pyrimidine-4,7(3H,8H)-dione] and `C#Cc1ccc(Nc2c(F)c(=O)n(C)c3ncn(C[C@@H](O)CO)c(=O)c23)c(F)c1` [Example 22, (R)-3-(2,3-dihydroxypropyl)-5-(4-ethynyl-2-fluorophenylamino)-6-fluoro-8-methylpyrido[2,3-d]pyrimidine-4,7(3H,8H)-dione] cannot be ordered by IC50: 5 to 15 nM for the first, at most 5 nM for the second.

`CC(O)Cn1cnc2c(c(Nc3ccc(I)cc3F)cc(=O)n2C)c1=O` (centres unmarked) [Example 38, 5-(2-Fluoro-4-iodophenylamino)-3-(2-hydroxypropyl)-8-methylpyrido[2,3-d]pyrimidine-4,7(3H,8H)-dione] and `COC(=O)Cn1cnc2c(c(Nc3ccc(I)cc3F)cc(=O)n2C)c1=O` [Example 3, Methyl 2-(5-(2-fluoro-4-iodophenylamino)-8-methyl-4,7-dioxo-7,8-dihydropyrido[2,3-d]pyrimidin-3(4H)-yl)acetate] cannot be ordered by IC50: at least 16 nM for the first, at least 16 nM for the second.

Compared with `Cn1c(=O)c(Cl)c(Nc2ccc(Br)cc2F)c2c(=O)n(CCCO)cnc21` [Example 34, 5-(4-Bromo-2-fluorophenylamino)-6-chloro-3-(3-hydroxypropyl)-8-methylpyrido[2,3-d]pyrimidine-4,7(3H,8H)-dione], `Cn1c(=O)c(Cl)c(Nc2ccc(Br)cc2Cl)c2c(=O)n(CCCO)cnc21` [Example 36, 5-(4-Bromo-2-chlorophenylamino)-6-chloro-3-(3-hydroxypropyl)-8-methylpyrido[2,3-d]pyrimidine-4,7(3H,8H)-dione] is higher in IC50: 5 to 15 nM for the first, at least 16 nM for the second. The first is the more potent here.

Compared with `Cn1c(=O)cc(Nc2ccc(I)cc2F)c2c(=O)n(Cc3ccccc3)cnc21` [Example 42, 3-Benzyl-5-(2-fluoro-4-iodophenylamino)-8-methylpyrido[2,3-d]pyrimidine-4,7(3H,8H)-dione], `Cn1c(=O)cc(Nc2ccc(I)cc2F)c2c(=O)n(CCCO)cnc21` [Example 31, 5-(2-Fluoro-4-iodophenylamino)-3-(3-hydroxypropyl)-8-methylpyrido[2,3-d]pyrimidine-4,7(3H,8H)-dione] is lower in IC50: at least 16 nM for the first, at most 5 nM for the second.

`Cn1c(=O)c(F)c(Nc2ccc(I)cc2F)c2c(=O)n(OC[C@H](O)CO)cnc21` [Example 28, (R)-3-(2,3-Dihydroxypropoxy)-6-fluoro-5-(2-fluoro-4-iodophenylamino)-8-methylpyrido[2,3-d]pyrimidine-4,7(3H,8H)-dione] and `Cn1c(=O)c(F)c(Nc2ccc(I)cc2F)c2c(=O)n(C[C@@H](O)CO)cnc21` [Example 18, (R)-3-(2,3-Dihydroxypropyl)-6-fluoro-5-(2-fluoro-4-iodophenylamino)-8-methylpyrido[2,3-d]pyrimidine-4,7(3H,8H)-dione] cannot be ordered by IC50: at most 5 nM for the first, at most 5 nM for the second.

`Cn1c(=O)cc(Nc2ccc(Br)cc2F)c2c(=O)n(CCCO)cnc21` [Example 33, 5-(4-Bromo-2-fluorophenylamino)-3-(3-hydroxypropyl)-8-methylpyrido[2,3-d]pyrimidine-4,7(3H,8H)-dione] and `Cn1c(=O)cc(Nc2ccc(Br)cc2Cl)c2c(=O)n(CCCO)cnc21` [Example 35, 5-(4-Bromo-2-chlorophenylamino)-3-(3-hydroxypropyl)-8-methylpyrido[2,3-d]pyrimidine-4,7(3H,8H)-dione] cannot be ordered by IC50: at least 16 nM for the first, at least 16 nM for the second.

First: Cn1c(=O)c(F)c(Nc2ccc(NS(C)(=O)=O)cc2F)c2c(=O)n(C[C@@H](O)CO)cnc21 [Example 23, (R)—N-(4-(3-(2,3-Dihydroxypropyl)-6-fluoro-8-methyl-4,7-dioxo-3,4,7,8-tetrahydropyrido[2,3-d]pyrimidin-5-ylamino)-3-fluorophenyl)methanesulfonamide]
Second: Cn1c(=O)c(F)c(Nc2ccc(I)cc2F)c2c(=O)n(C[C@H](O)CO)cnc21 [Example 19, (S)-3-(2,3-Dihydroxypropyl)-6-fluoro-5-(2-fluoro-4-iodophenylamino)-8-methylpyrido[2,3-d]pyrimidine-4,7(3H,8H)-dione]
The IC50 of the first is higher: at least 16 nM for the first, at most 5 nM for the second. The second is the more potent here.

Compared with `Cn1c(=O)c(Cl)c(Nc2ccc(Br)cc2F)c2c(=O)n(C[C@@H](O)CO)cnc21` [Example 29, (R)-5-(4-Bromo-2-fluorophenylamino)-6-chloro-3-(2,3-dihydroxypropyl)-8-methylpyrido[2,3-d]pyrimidine-4,7(3H,8H)-dione], `Cc1c(Nc2ccc(Br)cc2F)c2c(=O)n(C[C@H](O)CO)cnc2n(C)c1=O` [Example 9, (S)-5-(4-Bromo-2-fluorophenylamino)-3-(2,3-dihydroxypropyl)-6,8-dimethylpyrido[2,3-d]pyrimidine-4,7(3H,8H)-dione] is higher in IC50: 5 to 15 nM for the first, at least 16 nM for the second. The first is the more potent here.

`Cc1c(Nc2ccccc2F)c2c(=O)n(CCO)cnc2n(C)c1=O` [Example 15, 5-(2-Fluorophenylamino)-3-(2-hydroxyethyl)-6,8-dimethylpyrido[2,3-d]pyrimidine-4,7(3H,8H)-dione] and `Cc1c(Nc2ccc(Br)cc2F)c2c(=O)n(CCO)cnc2n(C)c1=O` [Example 11, 5-(4-Bromo-2-fluorophenylamino)-3-(2-hydroxyethyl)-6,8-dimethylpyrido[2,3-d]pyrimidine-4,7(3H,8H)-dione] cannot be ordered by IC50: at least 16 nM for the first, at least 16 nM for the second.

`CC(O)Cn1cnc2c(c(Nc3ccc(I)cc3F)c(Cl)c(=O)n2C)c1=O` (centres unmarked) [Example 40, 6-Chloro-5-(2-fluoro-4-iodophenylamino)-3-(2-hydroxypropyl)-8-methylpyrido[2,3-d]pyrimidine-4,7(3H,8H)-dione] and `Cn1c(=O)c(Cl)c(Nc2ccc(I)cc2F)c2c(=O)n(C[C@H](O)CO)cnc21` [Example 7, (S)-6-Chloro-3-(2,3-dihydroxypropyl)-5-(2-fluoro-4-iodophenylamino)-8-methylpyrido[2,3-d]pyrimidine-4,7(3H,8H)-dione] cannot be ordered by IC50: 5 to 15 nM for the first, at most 5 nM for the second.

`C#Cc1ccc(Nc2c(C)c(=O)n(C)c3ncn(C[C@H](O)CO)c(=O)c23)c(F)c1` [Example 44, (S)-3-(2,3-Dihydroxypropyl)-5-(4-ethynyl-2-fluorophenylamino)-6,8-dimethylpyrido[2,3-d]pyrimidine-4,7(3H,8H)-dione] and `C#Cc1ccc(Nc2c(C)c(=O)n(C)c3ncn(C[C@@H](O)CO)c(=O)c23)c(F)c1` [Example 16, (R)-3-(2,3-Dihydroxypropyl)-5-(4-ethynyl-2-fluorophenylamino)-6,8-dimethylpyrido[2,3-d]pyrimidine-4,7(3H,8H)-dione] fall in the same range of IC50: 5 to 15 nM for the first, 5 to 15 nM for the second.

First: Cn1c(=O)c(Cl)c(Nc2ccc(I)cc2F)c2c(=O)n(CCCO)cnc21 [Example 32, 6-Chloro-5-(2-fluoro-4-iodophenylamino)-3-(3-hydroxypropyl)-8-methylpyrido[2,3-d]pyrimidine-4,7(3H,8H)-dione]
Second: CN(C)CCn1cnc2c(c(Nc3ccc(I)cc3F)cc(=O)n2C)c1=O [Example 37, 3-(2-(Dimethylamino)ethyl)-5-(2-fluoro-4-iodophenylamino)-8-methylpyrido[2,3-d]pyrimidine-4,7(3H,8H)-dione]
The IC50 of the first is lower: at most 5 nM for the first, at least 16 nM for the second. The first is the more potent here.

`Cc1c(Nc2ccc(Br)cc2F)c2c(=O)n(C[C@@H](O)CO)cnc2n(C)c1=O` [Example 10, (R)-5-(4-Bromo-2-fluorophenylamino)-3-(2,3-dihydroxypropyl)-6,8-dimethylpyrido[2,3-d]pyrimidine-4,7(3H,8H)-dione] showed an IC50 of at least 16 nM.
